These results are taken from paper PMC9697349, “Mouse Pharmacokinetics and In Vitro Metabolism of SH-11037 and SH-11008, Synthetic Homoisoflavonoids for Retinal Neovascularization” (Pharmaceutics, 2022).

Data set [1] is described as follows: Mouse pharmacokinetics, single i.v. dose. The data set is classed as in vivo. Conditions: plasma, iv, single i.v. dose of SH-11008 3 mg/kg, male ICR mice. How it is done: (§1) Pharmacokinetic studies were performed with male ICR mice (8 weeks old, 30~35 g) purchased from Koatech Co. (Kyunggi, Korea) as reported previously. Test compounds were dissolved at 1 mg/mL in DMA/Tween 80/20% aqueous HPβCD (10/10/80 vol%) to prepare the dosing solutions. SH-11037 was administered by oral (p.o.) gavage at a dose of 10 mg/kg and a dose volume of 10 mL/kg (equimolar to 6 mg/kg of SH-11008) or intravenously (i.v.) via tail vein injection at a dose of 5 mg/kg and a dose volume of 5 mL/kg (equimolar to 3 mg/kg of SH-11008), respectively. SH-11008 was administered p.o. at a dose of 6 mg/kg and a dose volume of 6 mL/kg or i.v. at a dose of 3 mg/kg and a dose volume of 3 mL/kg, respectively. Plasma samples were analyzed as described below in Section 2.6.1.
Calibration standards and quality control (QC) samples were prepared by spiking 15 μL of blank plasma with 5 μL of analyte working solution prepared in 50 vol% aqueous CH3CN. For sample preparation, 15 μL aliquots of plasma samples combined with 5 μL of 50 vol% aqueous CH3CN were mixed with 3 volumes of ice-cold CH3CN containing glipizide (500 ng/mL) as the IS. The mixture was vortexed, sonicated, and centrifuged at 3000× g for 20 min. The supernatant was then mixed with the same volume of HPLC grade water before analysis. Sample analyses were conducted using Agilent 1290 Infinity HPLC system coupled to Agilent 6460 Triple Quadrupole LC-MS/MS system equipped with Jet Stream ESI ion source (Agilent Technologies Korea, Seoul, Korea). Chromatographic separation was performed on an Agilent Eclipse Plus C18 column (2.1 × 100 mm, 3.5 μm) with a Phenomenex Security Guard C18 guard column (4 × 20 mm) maintained at 40 °C. The mobile phase consisted of 0.1% formic acid in deionized water (A) and 0.1% formic acid in CH3CN (B): 0~2 min 5% B, 2~3 min to 95% B, and 3~6.5 min 95% B. Total run time including a 3 min equilibration time was 9.5 min. The flow rate was 0.45 mL/min. The injection volume was 5 µL. Detection of the analyte ions was performed in the positive multiple reaction monitoring (MRM) mode, with the following mass transitions (precursor > product): m/z 644 > 588, 397 > 367, and 446 > 321 for SH-11037, SH-11008 and IS, respectively. […] The lower limit of quantitation of SH-11037 and SH-11008 were 0.24 and 0.48 ng/mL, respectively, with a signal-to-noise ratio based on root mean square noise > 10. The calibration curves were linear in the range of 0.24–500 ng/mL (r^2 > 0.997) for SH-11037 and 0.48–500 ng/mL (r^2 > 0.998) for SH-11008, respectively. The precision and accuracy of the analytical method were evaluated with the QC samples prepared in triplicate at 5, 250, and 400 ng/mL for both of SH-11037 and SH-11008: the coefficient of variation (%CV) and the relative error (%RE) were in the ranges of −21.23~5.72% and 1.47~12.30% for SH-11037 and −22.85~4.96% and 1.2~13.8% for SH-11008, respectively. Extraction recovery, matrix effect, and process efficiency were in the ranges of 91.8~107.1%, 86.3~99.9%, and 88.8~100.8% for SH-11037 and 88.9~103.8%, 88.9~100.0%, and 80.0~97.4% for SH-11008, respectively. Quantitative analysis data were obtained with Agilent Mass Hunter Quantitative Analysis QQQ (ver. B.05.00) software.
Pharmacokinetic parameters were calculated by noncompartmental analysis of plasma concentration versus time profiles using PKSolver. The scaling factors of mice and human, half-life (t1/2), intrinsic clearance (CLint), hepatic clearance (CLH), and hepatic extraction ratio (EH) were from the in vitro studies as described previously. […] The fraction of parent drug converted to the metabolite (fm) was calculated as follows:fm (%) = (AUC(m) × CL(m))/D × MWparent/MWmetabolite × 100,(1) where D is dose of the parent drug, AUC(m) is area under the curve for the metabolite after a dose of parent drug, CL(m) is CL of metabolite, and MW is molecular weight.

A short description of data set [2]: Mouse pharmacokinetics, single p.o. dose. The data set is classed as in vivo. The note with it: mice. The protocol: as §1, with “SH-11008 was administered p.o. at a dose of 6 mg/kg and a dose volume of 6 mL/kg or i.v. at a dose of 3 mg/kg and a dose volume of 3 mL/kg, respectively.” left out
Calibration standards and quality control (QC) samples were prepared by spiking 15 μL of blank plasma with 5 μL of analyte working solution prepared in 50 vol% aqueous CH3CN. […] The lower limit of quantitation of SH-11037 and SH-11008 were 0.24 and 0.48 ng/mL, respectively, with a signal-to-noise ratio based on root mean square noise > 10. […] The precision and accuracy of the analytical method were evaluated with the QC samples prepared in triplicate at 5, 250, and 400 ng/mL for both of SH-11037 and SH-11008: the coefficient of variation (%CV) and the relative error (%RE) were in the ranges of −21.23~5.72% and 1.47~12.30% for SH-11037 and −22.85~4.96% and 1.2~13.8% for SH-11008, respectively. […]

Data set [3] is described as follows: Stability of SH-11037 in human plasma. It is filed as in vitro ADME. The note with it: pH 7.4, SH-11037 1 µM, 37 °C, read-out: half-life (t1/2) of hydrolysis to SH-11008. The protocol: SH-11037 (1 μM) was incubated in triplicate in 0.1 M phosphate buffer (pH 7.4) or in mouse, dog, and human plasma to investigate its stability. SH-11037 (40 μM) in 50 vol% aqueous CH3CN was mixed with 0.1 M phosphate buffer (pH 7.4) or plasma diluted 3-fold with 0.1 M phosphate buffer (pH 7.4) to a final volume of 160 μL and a final concentration of 1 μM. The resulting solutions were then incubated at 37 °C in a shaking water bath. The incubations were terminated at selected times by adding 160 µL of ice-cold CH3CN containing glipizide (500 ng/mL) as the internal standard (IS). The resulting mixture was vortexed, sonicated, and centrifuged at 3000× g for 20 min. Aliquots of the supernatant were subjected to LC-MS/MS analysis described below in Section 2.6.2.
The LC-MS/MS system consisted of Agilent 1290 Infinity HPLC system and Agilent 6530 Accurate-Mass Quadrupole Time-of-Flight (Q-TOF) mass spectrometer equipped with dual AJS ESI ion source (Agilent Technologies Korea, Seoul, Korea). Chromatographic separation was performed on an Agilent Eclipse Plus C18 column (2.1 × 100 mm, 3.5 μm) with a Phenomenex Security Guard C18 guard column (4 × 20 mm) maintained at 40 °C. The mobile phase consisted of 0.1% formic acid in deionized water (A) and 0.1% formic acid in CH3CN (B): 0~2 min 5% B, 2~7 min to 95% B, and 7~10 min 95% B. Total run time including a 5 min equilibration time was 15 min. […]

For the molecule `COc1ccc(CC2COc3cc(OC)c(OC)c(OC)c3C2=O)cc1O` (stereo not shown) [SH-11008], in data set [1], the Cmax – broadly, the peak of the concentration-time curve – was determined as 770 ± 1160 ng/mL; the time of peak concentration (Tmax) (as a rule, the time at which the peak concentration occurs) is 5 min; the clearance – broadly, the volume of plasma or blood freed of the substance per unit of time – came to 210 ± 17.2 mL/min/kg. In addition, the half-life in data set [1] (n = 3, read-out: t1/2 of SH-11008) was 3.5 ± 0.5 min. In addition, in data set [1] (read-out: AUCinf of SH-11008 (converted)), the AUC(0-inf) is 239 ng·h/mL. Moreover, the AUC(0-t) in data set [1] (read-out: AUClast of SH-11008 (converted)) is 239 ng·h/mL. Moreover, the Vd in data set [1] (read-out: Vss) was determined as 0.5 ± 0.1 L/kg. For the same molecule, the “plasma levels of SH-11008” value in data set [2] (after single p.o. dose of SH-11008 6 mg/kg, BQL) was under 0.48 ng/mL.

Take `COc1ccc(CC2COc3cc(OC)c(OC)c(OC)c3C2=O)cc1OC(=O)[C@H](Cc1ccccc1)NC(=O)OC(C)(C)C` (stereo partly shown) [SH-11037]: the half-life at 1 µM in data set [3] was found to be 73.2 min. The “plasma level of SH-11037” value in data set [2] (throughout the time course after single p.o. dose of SH-11037 10 mg/kg) is “BQL”.
